Laboratory results: patent US20080090805A1, “CB-1 MODULATING COMPOUNDS AND THEIR USE” (ACADIA PHARMACEUTICALS INC., priority 2005, published 2008)

Legend:
native CB1 receptors = native CB1 receptors (Rattus norvegicus, UniProt P20272); assay: CB1 receptor rat binding assay ([3H]SR141716A, rat brain membranes); settings: rat brain membranes; 3 nM [3H]SR141716A; read-out: Rat Brain pKi (converted)
CB1 (mutant) = CB1 (mutant) (Homo sapiens, UniProt P21554); assay: R-SAT functional receptor assay, CB1 (mutant, truncated after amino acid 417); format: cell-based; settings: Table 1, CB1 (mutant); for IC50: inhibition of constitutive receptor response, read-out: pIC50 (converted); for % Inhibition: relative to the ligand SR141716 (100%)
CB1 (wild-type) = CB1 (wild-type) (Homo sapiens, UniProt P21554); assay: R-SAT functional receptor assay, CB1 (wild-type); format: cell-based; settings: for IC50: Table 1, inhibition of constitutive receptor response; for Emax: Table 1, relative to the ligand SR141716 (100%), read-out: % Inhibition
[1] = test system: fasted Sprague-Dawley rats; assay: Acute feeding study; format: in vivo; settings: Table 3 feeding data
Description: Male, Sprague-Dawley rats (90-120 g) served as subjects for these studies. Rats were fasted for a period of 16 hrs (water was always available). After the fasting period, test compounds were administered either intraperitoneally (ip) or orally (po). Immediately following compound administration, the rats were returned to their home cage. Following 30 min after compound administration, the rats were removed from their home cages and placed individually into clean cages with a pre-measured amount of food. Food weights were obtained (to the nearest 0.1 g) at various time points. Food consumption was monitored for a period of up to 2 hrs (i.e., 2.5 hr after test compound administration).

in vitro [2] = settings: human, microsomes, pH 7.4
in vitro [3] = settings: mouse, microsomes, pH 7.4
in vitro [4] = settings: rat, microsomes, pH 7.4
hERG [5] = molecular target: T1, hERG (Homo sapiens, UniProt Q12809); assay: in vitro; settings: pH 7.4
hERG [6] = molecular target: T1, hERG; assay: HERG safety study (whole cell recordings, CHO cells); settings: CHO cells stably expressing hERG channels, pH 7.4

Sequence of CB1 (mutant) (P21554 1-417, change not shown): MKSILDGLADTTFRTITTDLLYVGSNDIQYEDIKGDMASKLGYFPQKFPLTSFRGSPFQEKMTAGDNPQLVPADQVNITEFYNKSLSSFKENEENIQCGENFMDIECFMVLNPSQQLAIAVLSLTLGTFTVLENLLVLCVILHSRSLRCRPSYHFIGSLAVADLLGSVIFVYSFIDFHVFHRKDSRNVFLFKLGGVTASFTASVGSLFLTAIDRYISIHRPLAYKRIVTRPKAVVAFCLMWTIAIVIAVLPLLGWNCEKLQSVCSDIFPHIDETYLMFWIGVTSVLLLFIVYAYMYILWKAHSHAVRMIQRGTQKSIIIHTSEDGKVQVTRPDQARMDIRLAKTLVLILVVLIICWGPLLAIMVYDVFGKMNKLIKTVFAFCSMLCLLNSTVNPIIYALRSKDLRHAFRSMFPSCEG
T1 sequence (Q12809 whole entry): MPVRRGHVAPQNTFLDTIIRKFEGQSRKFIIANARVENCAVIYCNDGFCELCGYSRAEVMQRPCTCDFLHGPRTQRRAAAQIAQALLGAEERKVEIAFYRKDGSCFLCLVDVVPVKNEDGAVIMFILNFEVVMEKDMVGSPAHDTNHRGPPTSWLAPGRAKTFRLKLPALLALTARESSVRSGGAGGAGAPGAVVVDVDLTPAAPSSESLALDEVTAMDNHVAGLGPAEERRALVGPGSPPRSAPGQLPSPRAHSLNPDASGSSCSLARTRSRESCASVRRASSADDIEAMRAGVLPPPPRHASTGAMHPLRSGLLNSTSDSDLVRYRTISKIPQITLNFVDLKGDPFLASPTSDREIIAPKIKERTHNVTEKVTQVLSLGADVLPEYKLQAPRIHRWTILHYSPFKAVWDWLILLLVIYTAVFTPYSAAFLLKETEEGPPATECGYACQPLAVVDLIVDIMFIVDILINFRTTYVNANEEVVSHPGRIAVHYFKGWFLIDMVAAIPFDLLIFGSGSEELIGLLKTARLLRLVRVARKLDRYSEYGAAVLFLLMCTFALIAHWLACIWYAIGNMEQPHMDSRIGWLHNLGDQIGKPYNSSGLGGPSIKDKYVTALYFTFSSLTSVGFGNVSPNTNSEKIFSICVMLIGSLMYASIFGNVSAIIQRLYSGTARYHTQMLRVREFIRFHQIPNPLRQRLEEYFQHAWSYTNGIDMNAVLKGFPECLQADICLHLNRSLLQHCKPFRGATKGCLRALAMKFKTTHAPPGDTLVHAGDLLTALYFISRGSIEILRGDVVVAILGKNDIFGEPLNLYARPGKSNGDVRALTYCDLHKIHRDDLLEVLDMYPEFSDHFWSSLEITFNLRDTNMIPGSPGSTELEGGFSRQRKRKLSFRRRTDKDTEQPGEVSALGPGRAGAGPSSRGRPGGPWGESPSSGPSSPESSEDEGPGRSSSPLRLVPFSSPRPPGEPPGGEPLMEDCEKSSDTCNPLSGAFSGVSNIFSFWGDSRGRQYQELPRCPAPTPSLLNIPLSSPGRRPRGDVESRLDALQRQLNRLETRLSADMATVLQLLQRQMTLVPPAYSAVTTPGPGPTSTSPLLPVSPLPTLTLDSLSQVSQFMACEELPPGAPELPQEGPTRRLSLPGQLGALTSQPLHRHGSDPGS
Sequence of CB1 (wild-type) (P21554 whole entry): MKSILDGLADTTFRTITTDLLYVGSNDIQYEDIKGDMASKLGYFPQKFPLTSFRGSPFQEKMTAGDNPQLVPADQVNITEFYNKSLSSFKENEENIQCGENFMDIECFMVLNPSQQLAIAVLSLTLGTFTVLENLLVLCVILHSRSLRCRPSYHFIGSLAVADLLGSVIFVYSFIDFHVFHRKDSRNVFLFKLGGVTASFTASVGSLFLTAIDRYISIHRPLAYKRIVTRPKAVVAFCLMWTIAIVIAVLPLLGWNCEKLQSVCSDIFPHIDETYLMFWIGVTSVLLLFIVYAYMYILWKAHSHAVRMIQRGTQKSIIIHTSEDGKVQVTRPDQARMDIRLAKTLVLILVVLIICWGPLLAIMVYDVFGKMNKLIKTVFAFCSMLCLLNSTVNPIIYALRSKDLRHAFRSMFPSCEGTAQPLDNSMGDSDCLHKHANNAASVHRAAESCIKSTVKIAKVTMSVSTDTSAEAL
Sequence of native CB1 receptors (P20272 whole entry, the tested form may be a part): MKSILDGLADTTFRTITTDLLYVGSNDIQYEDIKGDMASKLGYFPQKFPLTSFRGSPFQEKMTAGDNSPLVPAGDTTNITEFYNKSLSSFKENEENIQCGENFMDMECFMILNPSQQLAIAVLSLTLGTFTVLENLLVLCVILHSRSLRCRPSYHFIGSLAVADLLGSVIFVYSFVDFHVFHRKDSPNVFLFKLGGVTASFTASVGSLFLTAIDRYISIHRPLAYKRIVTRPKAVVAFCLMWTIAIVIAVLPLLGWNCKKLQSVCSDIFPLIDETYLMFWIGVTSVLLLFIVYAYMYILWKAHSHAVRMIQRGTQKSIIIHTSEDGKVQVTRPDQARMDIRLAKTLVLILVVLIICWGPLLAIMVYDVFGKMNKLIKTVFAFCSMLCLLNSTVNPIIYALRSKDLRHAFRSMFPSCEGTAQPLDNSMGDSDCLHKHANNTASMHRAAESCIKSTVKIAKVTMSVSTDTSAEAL

Row | SMILES | microsomal CLint at 1 μM (in vitro [2]) [µL/min/mg] | microsomal CLint at 1 μM (in vitro [4]) [µL/min/mg] | inhibition at 1 µM (hERG [6]) [%] | also measured
1 | CC(C)CNC(=O)c1ccc2c(c1)N=C(c1ccc(Cl)s1)c1ccccc1S2 [Example 11, 11-(5-Chlorothiophen-2-yl)-dibenzo[b,f][1,4]thiazepine-8-carboxylic acid isobutylamide] | – | – | – | Ki (native CB1 receptors): 10 nM; IC50 (CB1 (mutant)): 126 nM; % Inhibition (CB1 (mutant)): 95%; IC50 (CB1 (wild-type)): 15.8 nM; Emax (CB1 (wild-type)): 84%
2 | CCOC(=O)N1CCC(NC(=O)c2ccc3c(c2)N=C(Cl)c2ccccc2S3)CC1 [Example 14, 4-[(11-chloro-dibenzo[b,f][1,4]thiazepine-8-carbonyl)-amino]-piperidine-1-carboxylic acid ethyl ester] | – | – | – | IC50 (CB1 (mutant)): 316 nM; % Inhibition (CB1 (mutant)): 94%; IC50 (CB1 (wild-type)): 126 nM; Emax (CB1 (wild-type)): 88%
3 | Cc1ccc(N2CCN(C(=O)c3ccc4c(c3)N=C(C3CCCCC3)c3ccccc3S4)CC2)c(C)c1 [Example 18, (11-Cyclohexyl-dibenzo[b,f][1,4]thiazepin-8-yl)-[4-(2,4-dimethyl-phenyl)-piperazin-1-yl]methanone] | – | – | – | IC50 (CB1 (mutant)): 200 nM; % Inhibition (CB1 (mutant)): 99%; IC50 (CB1 (wild-type)): 39.8 nM; Emax (CB1 (wild-type)): 99%
4 | CCCCNC(=O)c1ccc2c(c1)N=C(c1ccc(Cl)cc1)c1ccccc1S2 [drawing 536] | – | – | – | Feeding ID50 [1]: 2.4 mg/kg
5 | O=C(NN1CCCCC1)c1ccc2c(c1)N=C(C1CCCCC1)c1ccccc1S2 [drawing 537] | – | – | – | Feeding ID50 [1]: 12 mg/kg
6 | CC(C)CCNC(=O)c1ccc2c(c1)N=C(c1cccc(Cl)c1)c1ccccc1S2 [drawing 538] | – | – | – | Feeding ID50 [1]: 5.3 mg/kg
7 | O=C(NCc1ccc(F)cc1)c1ccc2c(c1)N=C(c1ccc(Cl)cc1)c1ccccc1S2 [drawing 539] | – | – | – | Feeding ID50 [1]: 8 mg/kg
8 | CC(C)CNC(=O)c1ccc2c(c1)N=C(c1ccc(Cl)c(Cl)c1)c1ccccc1S2 [drawing 540] | – | – | – | Feeding ID50 [1]: 8.4 mg/kg
9 | O=C(NCc1cccnc1)c1ccc2c(c1)N=C(c1ccc(Cl)c(Cl)c1)c1ccccc1S2 [drawing 541] | – | – | – | Feeding ID50 [1]: 14 mg/kg
10 | CC(C)CNC(=O)c1ccc2c(c1)N=C(c1ccc(Cl)cc1F)c1ccccc1S2 [drawing 542] | – | – | – | Feeding ID50 [1]: 5.8 mg/kg
11 | O=C(NN1CCCCC1)c1ccc2c(c1)N=C(c1ccc(Cl)cc1)c1ccccc1S2 [drawing 543] | – | – | – | Feeding ID50 [1]: 2.4 mg/kg
12 | CC(C)CNC(=O)c1ccc2c(c1)N=C(c1ccc(Cl)s1)c1ccccc1S2 [drawing 544] | – | – | – | Feeding ID50 [1]: 7.9 mg/kg
13 | CCCCNC(=O)c1ccc2c(c1)N=C(c1ccc(F)cn1)c1ccccc1S2 [drawing 545] | – | – | – | Feeding ID50 [1]: 6 mg/kg
14 | O=C(NN1CCCCC1)c1ccc2c(c1)N=C(c1ccc(Cl)s1)c1ccccc1S2 [drawing 1660] | 32 | 148 | – | microsomal CLint at 1 μM (in vitro [3]): 227 µL/min/mg
15 | O=C(NCc1ccc(F)cc1)c1ccc2c(c1)N=C(c1cccc(Cl)c1)c1ccccc1S2 [drawing 1662] | 27 | 76 | – | –
16 | COc1cccc(C2=Nc3cc(C(=O)NC4CCC(F)(F)CC4)ccc3Sc3ccccc32)n1 [drawing 1673] | 25 | 158 | – | –
17 | O=C(NCCCc1ccccc1)c1ccc2c(c1)N=C(c1ccc(Cl)cc1)c1ccccc1S2 [drawing 1680] | 73 | 131 | – | –
18 | O=C(NN1CCCCC1)c1ccc2c(c1)N=C(c1ccc(F)cc1)c1ccccc1S2 [drawing 1685] | 61 | 96 | – | –
19 | O=C(NN1CCCCCC1)c1ccc2c(c1)N=C(c1cccc(F)c1)c1ccccc1S2 [drawing 1693] | 84 | 241 | – | microsomal CLint at 1 μM (in vitro [3]): 160 µL/min/mg
20 | CC(C)CCNC(=O)c1ccc2c(c1)N=C(c1cccc(F)c1)c1ccccc1S2 [drawing 1713] | 46 | 163 | – | microsomal CLint at 1 μM (in vitro [3]): 202 µL/min/mg
21 | O=C(NC1CCC(F)(F)CC1)c1ccc2c(c1)N=C(c1cccc(Cl)c1)c1ccccc1S2 [drawing 1715] | 3 | 81 | – | –
22 | C[C@@H]1CCC[C@H](C)N1NC(=O)c1ccc2c(c1)N=C(c1cccc(Cl)c1)c1ccccc1S2 [drawing 1720] | 390 | 254 | – | microsomal CLint at 1 μM (in vitro [3]): 684 µL/min/mg
23 | CCN(CCNC(=O)c1ccc2c(c1)N=C(c1cccc(Cl)c1)c1ccccc1S2)c1ccccc1 [drawing 1751] | 157 | 368 | – | –
24 | O=C(NCc1ccco1)c1ccc2c(c1)N=C(c1cccc(F)c1)c1ccccc1S2 [drawing 1754] | 68 | 140 | – | microsomal CLint at 1 μM (in vitro [3]): 197 µL/min/mg
25 | CC(C)CNC(=O)c1ccc2c(c1)N=C(c1ccc(Cl)cc1)c1ccccc1S2 [drawing 1759] | 12 | 56 | – | microsomal CLint at 1 μM (in vitro [3]): 83 µL/min/mg
26 | O=C(NCCc1ccccc1)c1ccc2c(c1)N=C(c1cccc(Cl)c1)c1ccccc1S2 [drawing 1763] | 53 | 110 | – | –
27 | CC(C)CCNC(=O)c1ccc2c(c1)N=C(c1ccc(F)cc1)c1ccccc1S2 [drawing 1771] | 52 | 214 | – | –
28 | O=C(NCc1ccccc1Cl)c1ccc2c(c1)N=C(c1ccc(Cl)cc1)c1ccccc1S2 [drawing 1782] | 17 | 33 | – | –

Row | SMILES | microsomal CLint at 1 μM (in vitro [2]) [µL/min/mg] | microsomal CLint at 1 μM (in vitro [4]) [µL/min/mg] | inhibition at 1 µM (hERG [6]) [%] | also measured
29 | CC(C)CNC(=O)c1ccc2c(c1)N=C(c1ccc(Br)cc1)c1ccccc1S2 [drawing 1791] | 19 | 115 | – | –
30 | O=C(NCc1ccccc1Cl)c1ccc2c(c1)N=C(c1ccccc1F)c1ccccc1S2 [drawing 1794] | 59 | 181 | – | –
31 | CC(CNC(=O)c1ccc2c(c1)N=C(c1ccc(F)cc1)c1ccccc1S2)c1ccccc1 (stereo not drawn) [drawing 1797] | 108 | 532 | – | –
32 | O=C(NCc1cccc(Cl)c1)c1ccc2c(c1)N=C(N1CCCCC1)c1ccccc1S2(=O)=O [drawing 1798] | 77 | 217 | – | –
33 | O=C(NN1CCCCC1)c1ccc2c(c1)N=C(c1ccc(F)cc1)c1ccccc1S2 [drawing 1815] | – | – | – | inhibition at 1 µM (hERG [5]): 91%
34 | CC(C)CNC(=O)c1ccc2c(c1)N=C(c1ccc(Cl)cc1)c1ccccc1S2 [drawing 1818] | – | – | – | inhibition at 1 µM (hERG [5]): 69%
35 | CC(C)CNC(=O)c1ccc2c(c1)N=C(c1cccc(Cl)c1)c1ccccc1S2 [drawing 1819] | – | – | 93 | –
36 | CCCCNC(=O)c1ccc2c(c1)N=C(c1ccc(Br)cn1)c1ccccc1S2 [drawing 1820] | – | – | 78 | –
37 | CCCCNC(=O)c1ccc2c(c1)N=C(c1ccc(Cl)cc1)c1ccc(F)cc1S2 [drawing 1821] | – | – | 34 | –
38 | CC(C)CCNC(=O)c1ccc2c(c1)N=C(c1cccc(Cl)c1)c1ccccc1S2 [drawing 1822] | – | – | 59 | –
39 | COc1cccc(C2=Nc3cc(C(=O)NCCCC(F)(F)F)ccc3Sc3ccccc32)n1 [drawing 1823] | – | – | 35 | –
40 | CCCCNC(=O)c1ccc2c(c1)N=C(c1ccc(Cl)s1)c1ccccc1S2 [drawing 1824] | – | – | 14 | –
41 | O=C(NN1CCCCCC1)c1ccc2c(c1)N=C(c1cccc(Cl)c1)c1ccccc1S2 [drawing 1825] | – | – | 97 | –
42 | CCCNC(=O)c1ccc2c(c1)N=C(c1ccc(Cl)cc1)c1ccccc1S2 [drawing 1826] | – | – | 55 | –
43 | O=C(NN1CCCCC1)c1ccc2c(c1)N=C(C1CCCCC1)c1ccccc1S2 [drawing 1828] | – | – | 29 | –
44 | O=C(NCc1cccnc1)c1ccc2c(c1)N=C(c1ccc(Cl)c(Cl)c1)c1ccccc1S2 [drawing 1830] | – | – | 40 | –
45 | O=C(NN1CCCCC1)c1ccc2c(c1)N=C(c1ccc(Cl)cc1)c1ccccc1S2 [drawing 1831] | – | – | 92 | –
46 | O=C(NCCCC(F)(F)F)c1ccc2c(c1)N=C(c1ccccn1)c1ccccc1S2 [drawing 1832] | – | – | 28 | –
47 | CC(C)CNC(=O)c1ccc2c(c1)N=C(c1ccc(Cl)c(Cl)c1)c1ccccc1S2 [drawing 1833] | – | – | 16 | –
48 | O=C(NC1CCCCC1)c1ccc2c(c1)N=C(c1cccc(Cl)c1)c1ccccc1S2 [drawing 1834] | – | – | 44 | –
49 | CC(C)CNC(=O)c1ccc2c(c1)N=C(c1ccc(Cl)cc1F)c1ccccc1S2 [drawing 1835] | – | – | 41 | –
50 | Cc1ccc(CNC(=O)c2ccc3c(c2)N=C(c2ccc(Cl)s2)c2ccccc2S3)o1 [drawing 1836] | – | – | 13 | –
51 | O=C(NCCCC(F)(F)F)c1ccc2c(c1)N=C(c1ccsc1)c1ccccc1S2 [drawing 1837] | – | – | 28 | –
52 | CCCCNC(=O)c1ccc2c(c1)N=C(c1ccc(Cl)cn1)c1ccccc1S2 [drawing 1839] | – | – | 67 | –
53 | CCCCNC(=O)c1ccc2c(c1)N=C(c1ccc(Cl)cc1)c1ccccc1[S+]2[O-] (stereo not drawn) [drawing 1840] | – | – | 52 | –
54 | CCCCNC(=O)c1ccc2c(c1)N=C(c1ccc(Cl)cn1)c1cc(F)ccc1S2 [drawing 1841] | – | – | 52 | –
55 | CC(C)CCNC(=O)c1ccc2c(c1)N=C(c1ccccn1)c1ccccc1S2 [drawing 1842] | – | – | 39 | –
